Experimental data as given in patent US12319681B2, “Tripartite androgen receptor eliminators, methods and uses thereof” (SPG Therapeutics, Inc., priority 2017, dated 2025).
Read-outs that look alike come from different tables or passages of the source.

Columns and labels:
androgen receptor (AR) [1] = molecular target: T1, androgen receptor (AR) (Homo sapiens, UniProt P10275); experiment: MDA-kb2 AR luciferase reporter gene assay (1.0 nM DHT); type: cell-based; conditions: MDA-kb2, 24 h, read-out: Gene Activity Reduction
Protocol: This example illustrates how to determine the inhibitory activity of an ARE disclosed herein using a cell-based androgen receptor transcriptional reporter assay using an engineered cell line.
Each ARE tested was prepared in DMSO. […] Ethanol concentrations in media never exceeded 0.1%.
(§1) To assess ARE-mediated inhibition, an AR luciferase assay was performed. After washing cells with 1×PBS, 20 μL lysis buffer (25 mM Tris/phosphate, 4 mM EGTA, 1% Triton, 10% glycerol, 2 mM DTT) was added per well, incubated for 5 minutes with gentle shaking and store at −80° C. On the day of assay, the plates were thawed to ambient temperature and 80 μL of assay buffer (25 mM glycylglycine, 15 mM MgCl2. 5 mM ATP, 0.1 mg/ml BSA) was added to each well. Plates are then processed on a microplate reader (POLARstar Omega) by injecting 100 μL of 1 mM D-luciferin per well, followed by chemiluminescence measurement of 3 seconds at onset of injection. Luciferase activity was determined, measured, and normalized to Relative Light Units (RLU). AR reporter gene activity reduction values were calculated as follows: AR reporter gene activity=1−(average signal (treatment group)/average signal (treatment group without drug).

androgen receptor (AR) [2] = molecular target: T2, androgen receptor (AR) (Homo sapiens, UniProt P10275); experiment: Keratinocyte AR Reporter Gene Assay, 24 and 72 hours continuous exposure (Example 12); type: cell-based; conditions: keratinocytes
T2 construct: human keratinocytes transfected with an AR luciferase reporter gene; endogenous in cells; host or cells: normal human adult primary epidermal keratinocytes (ATCC PCS-200-011)
T2 sequence (P10275 1-920): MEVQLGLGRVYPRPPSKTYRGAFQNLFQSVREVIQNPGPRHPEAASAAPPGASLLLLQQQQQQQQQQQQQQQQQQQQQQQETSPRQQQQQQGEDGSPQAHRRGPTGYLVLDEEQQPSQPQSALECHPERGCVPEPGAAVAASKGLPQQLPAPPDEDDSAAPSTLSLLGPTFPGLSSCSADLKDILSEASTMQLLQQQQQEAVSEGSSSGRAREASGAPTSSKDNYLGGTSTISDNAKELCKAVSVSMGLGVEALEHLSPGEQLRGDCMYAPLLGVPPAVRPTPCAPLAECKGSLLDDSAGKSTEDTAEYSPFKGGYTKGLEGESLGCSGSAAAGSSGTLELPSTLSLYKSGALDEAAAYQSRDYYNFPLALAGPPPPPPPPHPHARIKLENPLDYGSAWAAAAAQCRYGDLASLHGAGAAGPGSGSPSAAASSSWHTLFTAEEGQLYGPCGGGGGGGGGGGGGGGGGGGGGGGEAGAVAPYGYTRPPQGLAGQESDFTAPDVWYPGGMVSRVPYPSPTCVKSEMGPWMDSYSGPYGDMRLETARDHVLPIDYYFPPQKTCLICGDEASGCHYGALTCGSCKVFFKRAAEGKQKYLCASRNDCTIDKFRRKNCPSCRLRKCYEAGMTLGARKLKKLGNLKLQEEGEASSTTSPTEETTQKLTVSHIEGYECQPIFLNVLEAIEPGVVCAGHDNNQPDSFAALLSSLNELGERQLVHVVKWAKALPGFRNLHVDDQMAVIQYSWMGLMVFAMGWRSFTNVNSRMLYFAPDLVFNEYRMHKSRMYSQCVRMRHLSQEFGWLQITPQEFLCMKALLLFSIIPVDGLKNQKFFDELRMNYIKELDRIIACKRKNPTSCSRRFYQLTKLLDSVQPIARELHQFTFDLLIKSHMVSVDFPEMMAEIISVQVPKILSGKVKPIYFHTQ
Protocol: as §1
This example illustrates how to determine the inhibitory activity of an ARE disclosed herein using a cell-based androgen receptor transcriptional reporter assay using primary human keratinocytes.
Results were analyzed for IC50 and IC90 values in GraphPad Prism using a four-parameter logistic curve equation. Bottom constraints were set to 1 (level of uninduced control).

human keratinocytes = experiment: Keratinocyte cell viability / cytotoxicity in Example 12; type: cell-based; conditions: extended treatment
androgen receptor (AR) [3] = molecular target: T1, androgen receptor (AR); experiment: MDA-kb2 Assay with 0.1 nM DHT (Example 13); type: cell-based
Protocol: as §1
To determine efficacy of a compound, a MDA-kb2 assay was performed as described in Example 10. The cells were treated with compounds for 24 hours prior to measurements of reporter gene activity. […] AR luciferase assay results were analyzed using GraphPad Prism using a four-parameter logistic curve equation. Bottom constraints were set at 1 (level of uninduced control.)

[4] = tested on: MDA-kb2 breast cancer cell; experiment: MDA-kb2 cell viability in Example 13; type: cell-based
[5] = Solubility screening tests in 8 solvent systems; type: physicochemical
Protocol: Solubility screening tests were performed in 8 solvent systems: (1) Transcutol: Ethanol: Isopropyl myristate (IPM) 2:3:5 (v:v); (2) Transcutol: Ethanol 3:7 (v:v); (3) Ethanol: Propylene Glycol 1:1 (v:v); (4) Ethanol:H2O 7:3 (v:v); (5) IPM; (6) Ethanol:Tween 80: Cetyl Alcohol 90:5:5 (w:w); (7) CCT: Tween 80: Cetyl Alcohol 90:5:5 (w:w); and (8) CCT: Isopropanol 1:1 (v: v). […] One objective was to identify solvent systems for solution formulation at targeted API concentration of 1% by weight. Another objective was to identify solvents that are potentially good penetration enhancers and yet clinically viable. Since cetyl alcohol is solid, the solvent systems with them were prepared in weight ratios.

[6] = tested on: MDA-kb2 mammary gland breast cancer cell line; conditions: human, 24 h
Protocol: For the MDA-kb2 assay, MDA-kb2 mammary gland breast cancer cell line was maintained in L-15 media (Gibco) supplemented with 10% FBS, 100 U/mL penicillin, 100 μg/mL streptomycin, and 0.25 μg/mL amphotericin B at 37° C., without CO2. For experiments, cells were plated at 1.0×10^4 cells (50% confluence) per well in 100 μL of medium in 96-well plates. When cells were attached (after 6 hours), medium was removed and replaced with dosing medium containing 10% charcoal stripped FBS.
A 5α-Androstan-17β-ol-3-one (DHT) stock solution was prepared at 1,000× in ethanol. Each ARE tested was prepared in DMSO. Dosing medium was prepared at the time of treatment by serial diluting stock solution into medium. Ethanol concentrations in media never exceeded 0.1%. […] Negative control wells contained 100 μL medium/well with 1 μL of ethanol/mL of medium and an appropriate amount of DMSO. Each plate also contained 1.0 nM DHT with an ARE or without an ARE as a positive control. Cells were incubated 24 hours at 37° C. without CO2.
To assess for cell viability, cells were first visually examined under a phase-contrast microscope to record cell confluence, morphological changes, and presence of drug crystallization as well as to observe signs of cytotoxity such as, e.g., detachment, vacuolization, membrane degradation, or lack of phase brightness. After microscopic inspection, a Trypan Blue exclusion assay was performed to assess cell viability and cell number for each well. Each well was washed with 0.5 mL volume of PBS. 30 µL of Trypan Blue was added to each well for 5-10 minutes. Total cell number and total viable cell number will be counted from 1 number of fields per well, in triplicate.

in vitro = conditions: human
Protocol: For the Keratinocyte assay, normal Human Adult Primary Epidermal Keratinocyte cell line (ATCC PCS-200-011) was maintained in EPIUFE® Medium, with 60 μM calcium (Thermo MEPISOOCA) supplemented with Human Keratinocyte Growth Supplement, 100 U/mL penicillin, and 100 μg/mL streptomycin at 37° C. with 5% C02. For experiments, cells were seeded at 70% confluence per well in 100 μL of medium in 96-well plates. Reverse transfection was done on the cells using Lipofectamine 3000 (Life Technologies) with plasmids according to manufacturer's instructions. Briefly, 0.3 μL transfection reagent per 100 ng DNA were incubated with P3000 reagent and Opti-Mem prior to addition of cells. After 16 hours, medium was removed and replaced with dosing medium.
Each ARE tested was prepared in DMSO. Dosing medium was prepared at the time of treatment by serial diluting stock solution into medium. Ethanol concentrations in media never exceeded 0.1%. […] Negative control wells contained 100 L medium/well with 1 μL of ethanol/mL of medium and an appropriate amount of DMSO. […] Cells were incubated 72 hours at 37° C. without CO2.

CC12CCC(=O)C=C1C[C@@H](SC(=O)CC13CC4CC(CC(C4)C1)C3)C1C2CCC2(C)C1CC[C@@]21CCC(=O)O1 (some centres unmarked) [SPG-003]
inhibition at 0.1 µM (androgen receptor (AR) [1]): 8% | inhibition at 1 µM (androgen receptor (AR) [1]): 20% | inhibition at 3 µM (androgen receptor (AR) [1]): 40% | inhibition at 10 µM (androgen receptor (AR) [1]): 90% | IC50 (androgen receptor (AR) [2]; 24-hr Treatment): 3.68 µM | IC90 (androgen receptor (AR) [2]; 24-hr Treatment): 6.96 µM | Maximum Inhibition (androgen receptor (AR) [2]; 24-hr Treatment): 91% | IC50 (androgen receptor (AR) [2]; 24-hr treatment): 3.7 µM | IC90 (androgen receptor (AR) [2]; 24-hr treatment): 7 µM | IC50 (androgen receptor (AR) [2]; 72-hour treatment): 2.5 µM | IC90 (androgen receptor (AR) [2]; 72-hour treatment): 5.7 µM | IC50 (androgen receptor (AR) [2]; 72-hr Treatment): 2.57 µM | IC90 (androgen receptor (AR) [2]; 72-hr Treatment): 5.68 µM | Maximum Inhibition (androgen receptor (AR) [2]; 72-hr Treatment): 93% | inhibition of AR reporter gene activity (in words) (androgen receptor (AR) [2]; 24 and 72 hours): dose-dependent inhibition | cell cytotoxicity (in words) (human keratinocytes): minimal | IC50 (androgen receptor (AR) [3]; MDA-kb2, 0.1 nM DHT, 24 hours): 0.789 µM | IC90 (androgen receptor (AR) [3]; MDA-kb2, 0.1 nM DHT, 24 hours): 2.71 µM | Maximum Inhibition (androgen receptor (AR) [3]; MDA-kb2, 0.1 nM DHT, 24 hours): 95% | dose-dependent inhibition of AR reporter gene activity (in words) (androgen receptor (AR) [3]; MDA-kb2, reduced DHT levels (0.1 nM)): dose-dependent inhibition | Cell Viability ([4]; MDA-kb2, 6 μM): 80% | Cell Viability ([4]; MDA-kb2, 10 μM): 50% | solubility ([5]; solvent system (1) Transcutol: Ethanol: Isopropyl myristate (IPM) 2:3:5 (v:v), target 1% by weight): good solubility | solubility ([5]; solvent system (2) Transcutol: Ethanol 3:7 (v:v), target 1% by weight): good solubility | solubility ([5]; solvent system (3) Ethanol: Propylene Glycol 1:1 (v:v), after extensive sonication): not soluble | solubility ([5]; solvent system (4) Ethanol:H2O 7:3 (v:v), after extensive sonication): not soluble | solubility ([5]; solvent system (5) IPM, after extensive sonication): not soluble | solubility ([5]; solvent system (6) Ethanol:Tween 80: Cetyl Alcohol 90:5:5 (w:w)): good solubility | solubility ([5]; solvent system (7) CCT: Tween 80: Cetyl Alcohol 90:5:5 (w:w), after extensive sonication): not soluble | solubility ([5]; solvent system (8) CCT: Isopropanol 1:1 (v: v)): good solubility | Cell Viability ([6]; 0.1 μM): 98% | Cell Viability ([6]; 1 μM): 99% | Cell Viability ([6]; 3 μM): 98% | Cell Viability ([6]; 10 μM): 98% | IC50 at 72 h (in vitro): ~50 µM
